Measurements published in patent US9290477B2, “Inhibitors of β-secretase” (Vitae Pharmaceuticals, Inc., priority 2012, dated 2016).

What was measured:
[1] = target: truncated human beta-secretase, BACE1 (amino acids 1-454) (Homo sapiens (Human), UniProt P56817); experiment: BACE1 Assay (Assay 1), fluorescence quench assay; format: biochemical; details: Table 1; pH 4.4, 1 μM substrate peptide; read-out: BACE 1 IC50 nM (Assay 1)
Description: The substrate was dissolved at 1 mg/ml in DMSO.
The assay was performed in the presence of OptiMEM™ (supernatant collected over 24 h and cleared from cellular debris by centrifugation) containing the ectodomain of BACE1, 25 μl water containing the desired 2-fold concentration of test compound and 2% DMSO, 1 μM substrate peptide, 20 mM NaOAc, pH 4.4, and 0.04% Triton-X100 in a total assay volume of 50 μl in a 384 well plate. In general, 25 μl of compound dilution were added to the plate followed by the addition of 10 μl of BACE1 containing OptiMEM™ diluted 1:10 in water with 0.2% Triton X-100. The reaction was started with the addition of 15 μl substrate in NaOAc buffer. The reaction was incubated at rt (dark) in an Envision® multilabel reader (Perkin Elmer) and the cleavage of the substrate was recorded as kinetic for 60 min at ex: 485 nm, em: 538 nm. Blank wells containing no enzyme were included on each plate.
The intensity of fluorescence was regressed against time in order to derive velocities of reaction in all 384 wells. These velocities were used for calculating percent control using an uninhibited control containing 1% DMSO as 100% and a blank control performed in the absence of enzyme as 0%. IC50 values were calculated by fitting percent control vs. test compound concentration using Assay Explorer®.

[2] = system: Abeta1-x production in H4 neuroglioma cell line stably expressing human APP; experiment: H4-APPwt Cell-Based Assay (Assay 2), production of Abeta1-x peptides; details: Table 1; H4 cells expressing human APP, Abeta1-x by AlphaLISA, 18 h
Description: Cellular potency of the compounds was assessed in an assay monitoring production of Abeta1-x peptides in the H4 neuroglioma cell line (ATCC, Cat. #HTB-148) stably expressing human APP. Tested compounds were dissolved in DMSO and pre-diluted in the culture medium (DMEM containing 10% FBS and 1% penicillin/streptomycin) to achieve twice the final concentration of the compounds in the assay. Equal volumes of the 2× solutions of the tested compounds and cell suspension were added to a 96-well culture plate, so that each well contained ˜10,000 cells in a final volume of 200 μl. Final concentration of DMSO in the assay was 0.2%. The plates were incubated for 5 h at 37° C., 5% CO2 to allow cells to attach to the bottom of the wells in the presence of the tested compounds. The media was removed and replaced with fresh media containing tested compounds at the same final concentration. The plates were incubated for 18 h at 37° C., 5% CO2. Concentrations of Ab1-x were determined using AlphaLISA immunoassay (PerkinElmer, Cat. # AL288) following the manufacturer's protocol. Concentrations of Abeta1-x in the wells containing either DMSO or 10 μM beta-secretase inhibitor (BACE inhibitor IV, EMD Bioscience, Cat. #565788) were used as uninhibited and background controls, respectively, for calculating percent inhibition values for each well with the tested compounds.

truncated human beta-secretase, BACE1 (amino acids 1-454), sequence (P56817 22-454): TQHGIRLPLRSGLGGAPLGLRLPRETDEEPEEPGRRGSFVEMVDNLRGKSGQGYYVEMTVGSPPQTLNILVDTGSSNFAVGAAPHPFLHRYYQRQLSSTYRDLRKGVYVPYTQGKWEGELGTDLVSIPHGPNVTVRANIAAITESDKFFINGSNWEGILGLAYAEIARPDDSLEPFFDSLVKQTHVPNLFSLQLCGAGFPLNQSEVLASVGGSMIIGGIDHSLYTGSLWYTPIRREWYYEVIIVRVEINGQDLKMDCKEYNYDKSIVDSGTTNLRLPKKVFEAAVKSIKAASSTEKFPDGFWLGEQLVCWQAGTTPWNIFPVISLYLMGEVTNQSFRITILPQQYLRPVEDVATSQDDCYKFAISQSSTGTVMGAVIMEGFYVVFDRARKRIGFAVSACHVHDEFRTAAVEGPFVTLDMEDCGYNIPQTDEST

| IC50 [1] | IC50 [2] | Compound |
| --- | --- | --- |
| 4 nM | 4.5 nM | CO[C@H]1[C@H](C)C[C@@]2(Cc3ccc(Br)cc3[C@@]23N=C(C)C(N)=N3)C[C@@H]1C [Example 1] |
| 3.5 nM | 4 nM | CO[C@H]1[C@H](C)C[C@@]2(Cc3ccc(C#N)cc3[C@@]23N=C(C)C(N)=N3)C[C@@H]1C [Example 2] |
| 37 nM | 34 nM | CC1=N[C@]2(N=C1N)c1cc(C#N)ccc1C[C@@]21C[C@@H](C)[C@H](O)[C@@H](C)C1 [Example 3] |
|  | 6.2 nM | CO[C@H]1CC[C@@]2(Cc3ccc(Br)cc3C23N=C(C)C(N)=N3)C[C@@H]1C (stereo partly shown) [Example 4] |
| 1.5 nM | 2 nM | CO[C@H]1CC[C@@]2(Cc3ccc(C#N)cc3[C@@]23N=C(C)C(N)=N3)C[C@@H]1C [Example 5] |
| 1.5 nM | 0.6 nM | CO[C@H]1[C@H](C)C[C@@]2(Cc3ccc(-c4cncc(F)c4)cc3[C@@]23N=C(C)C(N)=N3)C[C@@H]1C [Example 6] |
| 8.2 nM | 4 nM | CC#Cc1cncc(-c2ccc3c(c2)[C@@]2(N=C(C)C(N)=N2)[C@@]2(C3)C[C@@H](C)[C@H](OC)[C@@H](C)C2)c1 [Example 7] |
